Structures are written as SMILES. pIC50: −log10 of the molar value. Where only a bound is given, the exact number is not on record here.

What is called pIC50 is the negative decadic logarithm of the IC50, by convention in mol/L. Lower therefore signals a high IC50.

Experiment [1] addresses Histone Deacetylase 4 (HDAC4) catalytic domain (Homo sapiens (Human), UniProt P56524). Description: Biochemical HDAC inhibition assay, fluorogenic substrate Boc-Lys(Tfa)-AMC. The gist of the method:
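Human HDAC4 catalytic domain (aa 648-1032, C-terminal His6) at 0.2 μg/mL working solution was tested against a 16-point compound dilution series in Tris buffer pH 8.0 for 15 min at 37 °C. Substrate Boc-Lys(Tfa)-AMC was prepared at 50 μM (5×). The reaction was stopped with trypsin plus reference inhibitor for 1 h at 37 °C, and AMC fluorescence was read at Ex 355/Em 460 nm.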

Experiment [2] concerns cellular histone deacetylase enzymatic activity in Jurkat E6-1 cells. Kind of experiment: Inhibition of cellular HDAC activity, Boc-Lys(Tfa)-AMC substrate (Cell Lys-TFA). The experiment is classed as cell-based. Summed up: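 Jurkat E6-1 cells (75,000/well) were treated with a 16-point compound dilution for 2 h at 37 °C, then exposed to Boc-Lys(Tfa)-AMC for 3 h. Lysis buffer containing trypsin was added overnight (15-16 h), and AMC fluorescence was read at Ex 355/Em 460 nm.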

The subject of experiment [3] is cellular histone deacetylase activity (Lys-Ac). Description: Inhibition of cellular HDAC activity (Cell Lys-Ac). The experiment is classed as cell-based. The settings on record: Lys-Ac substrate.
The mark [4] stands for this setting: Homo sapiens, Jurkat E6.1, Lys-TFA substrate.

Sequence of Histone Deacetylase 4 (HDAC4) catalytic domain (P56524 648-1032): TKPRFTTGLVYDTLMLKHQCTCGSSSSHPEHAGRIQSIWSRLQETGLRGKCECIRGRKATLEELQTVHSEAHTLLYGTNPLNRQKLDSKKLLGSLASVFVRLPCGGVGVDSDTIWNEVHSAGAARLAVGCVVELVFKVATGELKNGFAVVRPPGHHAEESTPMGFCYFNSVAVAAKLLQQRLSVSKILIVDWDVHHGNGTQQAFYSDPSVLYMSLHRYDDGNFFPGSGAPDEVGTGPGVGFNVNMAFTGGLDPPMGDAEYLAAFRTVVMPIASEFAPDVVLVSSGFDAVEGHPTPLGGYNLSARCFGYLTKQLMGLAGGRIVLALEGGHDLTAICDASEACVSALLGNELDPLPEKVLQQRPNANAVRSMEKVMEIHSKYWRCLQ

For `Cc1c(F)cccc1[C@@]1(C(=O)NO)Cc2cnn(-c3ccccc3)c2C1` [Example 30, (R)-5-(3-Fluoro-2-methylphenyl)-N-hydroxy-1-phenyl-1,4,5,6-tetrahydrocyclopenta[c]pyrazole-5-carboxamide], the negative-log IC50 (pIC50) in experiment [1] was 6.00; in experiment [2] (setting [4]), 5.77; in experiment [3] it was below 4.30.

On to `Cc1c(F)cccc1C1(C(=O)NO)Cc2nc(-c3ccccc3F)sc2C1` (single isomer, unassigned) [Example 62, E2-(abs)-5-(3-fluoro-2-methylphenyl)-2-(2-fluorophenyl)-N-hydroxy-5,6-dihydro-4H-cyclopenta[d]thiazole-5-carboxamide], for which the pIC50 in experiment [1] was 6.71; in experiment [2] (Lys-TFA substrate), 7.31; in experiment [3] it was below 4.30.

For the molecule `Cc1c(F)cccc1[C@]1(C(=O)NO)Cc2cnn(C3CCCC3)c2C1` [Example 18, (S)-1-Cyclopentyl-5-(3-fluoro-2-methylphenyl)-N-hydroxy-1,4,5,6-tetrahydrocyclopenta[c]pyrazole-5-carboxamide], the pIC50 in experiment [1] is 7.43; in experiment [2] (setting [4]), 6.79; in experiment [3], below 4.30.

Turning to `Cc1c(F)cccc1[C@]1(C(=O)NO)Cc2cn(-c3ccc(OC(F)F)cc3)nc2C1` [Example 21, (S)-2-(4-(difluoromethoxy)phenyl)-5-(3-fluoro-2-methylphenyl)-N-hydroxy-2,4,5,6-tetrahydrocyclopenta[c]pyrazole-5-carboxamide], the negative-log IC50 (pIC50) is 6.83 in experiment [1], 6.76 in experiment [2] (setting [4]) and below 4.30 in experiment [3].

As for `Cc1cc(-c2nc3c(s2)C[C@@](C(=O)NO)(c2cccc(F)c2C)C3)n(C)n1` [Example 70, (R)-2-(1,3-Dimethyl-1H-pyrazol-5-yl)-5-(3-fluoro-2-methylphenyl)-N-hydroxy-5,6-dihydro-4H-cyclopenta[d]thiazole-5-carboxamide], the negative logarithm of the IC50 (pIC50) in experiment [1] is 6.91; in experiment [2] (setting [4]) it was 7.10; in experiment [3], below 4.30.

With `Cc1c(F)cccc1C1(C(=O)NO)Cc2nc(-c3ccccc3F)sc2C1` (single isomer, unassigned) [Example 61, E1-(abs)-5-(3-Fluoro-2-methylphenyl)-2-(2-fluorophenyl)-N-hydroxy-5,6-dihydro-4H-cyclopenta[d]thiazole-5-carboxamide], the negative logarithm of the IC50 (pIC50) was 6.32 in experiment [1], 6.92 in experiment [2] (Lys-TFA substrate) and below 4.30 in experiment [3].

As for `Cc1c(F)cccc1C1(C(=O)NO)CCc2c(cnn2-c2ccccc2)C1` (single isomer, unassigned) [Example 31, E1-(abs)-5-(3-Fluoro-2-methylphenyl)-N-hydroxy-1-phenyl-4,5,6,7-tetrahydro-1H-indazole-5-carboxamide], the pIC50 in experiment [1] was 6.09; in experiment [2] (Lys-TFA substrate) it was 7.14; in experiment [3] it was below 4.30.

These data come from patent US10065948B2, “Histone deacetylase inhibitors and compositions and methods of use thereof” (CHDI Foundation, Inc., priority 2014, dated 2018).
